Data reported in patent US6368788B1 (priority 1987, dated 2002).
Marks after values point to notes of the source that are not given here.

Key:
[1] = Dental caries: toothpaste containing L-Glu-L-Trp; type: in vivo, human
Procedure: The use of dental toothpaste containing L-Glu-L-Trp will have the secondary effect of reducing incidence and severity of gingival disease. Patients with odontogenic infections and periapical granulomas can be treated with 100 μg of L-Glu-L-Trp instilled into the foramen at the base of the tooth, or alternatively, L-Glu-L-Trp can be compounded in a filling paste which is packed into the base of the tooth.

[2] = tested on: peripheral blood lymphocytes; experiment: Chernobyl Protocol F: L-Glu-L-Trp at 3 years post-radiation exposure; type: in vivo, human
Procedure: An increased incidence of cancer is one sequelae known to occur in subjects exposed to radiation, presumably because of decreased immune surveillance and elimination of tumor cells. […] An attempt to normalize immune parameters was attempted in 70 of the latter patients exposed 3 years previously to 0.2-0.5 Gy of radiation at Chernobyl. […] The subjects were treated with L-Glu-L-Trp in an attempt to alleviate the immune defects. The treatment course consisted of daily doses of 100 μg L-Glu-L-Trp administered im for 3-5 days. Sixty three subjects, similarly exposed to radiation in Chernobyl were used as untreated controls.

Staphylococcus aureus [3] = experiment: Survival after Staphylococcus aureus peritonitis, therapeutic treatment 1 hour after challenge; type: in vivo, mice; conditions: for Percentage Survivors: ip therapeutic 1 hour after challenge
Procedure: EXAMPLES 32-34, above, test substance (i.e., L-Glu-L-Trp alone or in combination with antibiotic, or antibiotic alone) was injected sc, ip, po one hour after the bacterial challenge.

[4] = Pleuritis / suppurative lung diseases, combined antibiotic therapy (Protocol K); type: in vivo, human
Procedure: Efficacy of L-Glu-L-Trp in combined antibiotic therapy was evaluated in twelve male patients (aged 18 to 45) with suppurative lung diseases that were poorly responsive to antibiotic therapy and accompanied by diffuse pleuritis, disseminated intravascular coagulation (DIC), pleural effusions, and fever. […] L-Glu-L-Trp was administered to these patients as a treatment of nearly last resort, and as part of the ongoing (unsuccessful) regimen of broad spectrum antibiotic therapy: i.e., 200 μg of L-Glu-L-Trp was administered im daily over a period of 5-7 days. […] In addition, T-cell counts in peripheral blood increased and IgG, IgM, and IgA increased (TABLE 17) and C-reactive protein levels fell (TABLE 16).

Staphylococcus aureus [5] = experiment: Survival after acute peritonitis with LD100 dose of antibiotic-resistant Staphylococcus aureus, prophylactic treatment; conditions: for Percentage Survivors: ip prophylactic
E-RFC = experiment: In vitro sheep red blood cell rosette forming response of gastritis patients' T-lymphocytes; type: cell-based, human; conditions: 22 patients
From the text: Twenty two patients (all men aged 18-30 years) suffering from chronic primary gastritis and gastro-duodenitis were entered into the trial. Diagnosis was based on physical examination, and clinical and laboratory investigations including roentgenoscopy and endoscopic examination of the stomach and duodenum. Patient entry criteria was further conditioned on the results of laboratory tests for i) pre-treatment immune indices (i.e., numbers of lymphocytes, T-, and B-lymphocytes, etc.; TABLE 46) and ii) the in vitro sheep red blood cell rosette forming response of T-lymphocytes to L-Glu-L-Trp, (i.e., whether in vitro incubation of patient peripheral blood lymphocytes with L-Glu-L-Trp increased the percentage of E-RFC). […] These twelve patients were entered into the trial.

Staphylococci = experiment: Antibiotic sensitivity (doubling-dilution, MIC-2000) of patient isolates before and after Stage 1; type: cell-based
Procedure: Antibiotics were administered according to established dosages and routes: i.e., penicillin, Ampicillin, oxacillin, tetracycline, erythromycin, garamycin; administered by intramuscular route. Antibiotics were chosen according to the antibiotic sensitivity of the Staphylococci isolated from the respective patients. (Antibiotic sensitivity was determined by testing staphylococcal isolates for their sensitivity in an antibiotic sensitivity doubling-dilution assay with the aid of the semi-automatic MIC-2000 system, Dynatech, USA).
Staphylococci were isolated from patients before and after treatment in Stage 1 with L-Glu-L-Trp in order to determine whether a favorable reversal of T-lymphocyte immunodeficiency might lead to a change in the antibiotic sensitivity. The isolated bacterial colonies following Stage I were typed as follows: namely, in 16 patients S. aureus, in 34, S. epidermidis, in 2 saprophytic Staphylococci. In all cases the same types of Staphylococci were isolated following treatment with L-Glu-L-Trp, but in 4 patients the predominant Staphylococci in the isolates changed from S. aureus to S. epidermidis (n=2), and saprophytic Staphylococci (n=2).
Antibiotic sensitivity of Staphylococci were determined by doubling-dilution methods with the aid of the semiautomatic MIC-2000 system (Dynatech, USA).

[6] = 24 hours, Glu-Trp dose 10 μg/kg (alone or + Ampicillin)
[7] = 24 hours, Glu-Trp dose 100 μg/kg (alone or + Ampicillin)
[8] = 48 hours, Glu-Trp dose 10 μg/kg (alone or + Ampicillin)
[9] = 48 hours, Glu-Trp dose 100 μg/kg (alone or + Ampicillin)
[10] = 72 hours, Glu-Trp dose 10 μg/kg (alone or + Ampicillin)
[11] = 72 hours, Glu-Trp dose 100 μg/kg (alone or + Ampicillin)

For L-Glu-L-Trp, the Clinical outcome [1] was “reduction of caries”, the “B-Ig+, %” value ([2]; After L-Glu-L-Trp) was 11.0 ± 0.3% and the “B-Ig+, abs” value ([2]; After L-Glu-L-Trp) was 0.23 ± 0.04 10^9/L. The “B-IgA+, %” value ([2]; After L-Glu-L-Trp) was 1.9 ± 0.3%, the “B-IgA+, abs” value ([2]; After L-Glu-L-Trp) was 0.04 ± 0.002 10^9/L and the “B-IgG+, %” value ([2]; After L-Glu-L-Trp) was 4.8 ± 0.5%. For the same substance, the “B-IgG+, abs” value ([2]; After L-Glu-L-Trp) was 0.09 ± 0.007 10^9/L, the “B-IgM+, %” value ([2]; After L-Glu-L-Trp) was 4.1 ± 0.6 % and the “B-IgM+, abs” value ([2]; After L-Glu-L-Trp) was 0.12 ± 0.003** 10^9/L. For the same substance, the “CD2-DR+, %” value ([2]; After L-Glu-L-Trp) was 32 ± 3 %, the “CD2-DR+, abs” value ([2]; After L-Glu-L-Trp) was 0.66 ± 0.10** 10^9/L and the “CD3, %” value ([2]; After L-Glu-L-Trp) was 59.2 ± 2.1 %. For the same substance, the “CD3, abs” value ([2]; After L-Glu-L-Trp) was 1.21 ± 0.15 10^9/L, the “CD4, %” value ([2]; After L-Glu-L-Trp) was 36.2 ± 1.7% and the “CD4, abs” value ([2]; After L-Glu-L-Trp) was 0.74 ± 0.08 10^9/L. For the same substance, the “CD8, %” value ([2]; After L-Glu-L-Trp) was 23.2 ± 2.1 %, the “CD8, abs” value ([2]; After L-Glu-L-Trp) was 0.48 ± 0.07** 10^9/L and the IgA ([2]; After L-Glu-L-Trp) was 1.2 ± 0.4 g/L. For the same substance, the IgG ([2]; After L-Glu-L-Trp) was 10.9 ± 1.3 g/L, the IgM ([2]; After L-Glu-L-Trp) was 1.06 ± 0.06 g/L and the “LMI, %” value ([2]; After L-Glu-L-Trp) was 75 ± 6 %. For the same substance, the “Leukocytes, abs” value ([2]; After L-Glu-L-Trp) was 5.6 ± 0.4 10^9/L, the “Lymphocytes, abs” value ([2]; After L-Glu-L-Trp) was 2.1 ± 0.3 10^9/L and the T4/T8 ([2]; After L-Glu-L-Trp) was 1.58 ± 0.04. The “Cases with restoration of CD2+ counts” value ([2]; in vivo) was 85%, the Clinical outcome ([2]; in vivo) was “disappearance of symptoms associated with the asthenic syndrome” and the “Percentage Survivors” value (Staphylococcus aureus [3]; 24 hours, Glu-Trp dose 0.01 μg/kg) was 16.7%. The “Percentage Survivors” value (Staphylococcus aureus [3]; 24 hours, Glu-Trp dose 0.1 μg/kg) was 5.6*† %, the “Percentage Survivors” value (Staphylococcus aureus [3]; 24 hours, Glu-Trp dose 1 μg/kg) was 27.8† % and the “Percentage Survivors” value (Staphylococcus aureus [3]; [6]) was 66.7* %. The “Percentage Survivors” value (Staphylococcus aureus [3]; [7]) was 66.7* %, the “Percentage Survivors” value (Staphylococcus aureus [3]; 48 hours, Glu-Trp dose 0.01 μg/kg) was 0% and the “Percentage Survivors” value (Staphylococcus aureus [3]; 48 hours, Glu-Trp dose 0.1 μg/kg) was 0† %. The “Percentage Survivors” value (Staphylococcus aureus [3]; 48 hours, Glu-Trp dose 1 μg/kg) was 5.6† %, the “Percentage Survivors” value (Staphylococcus aureus [3]; [8]) was 38.9* % and the “Percentage Survivors” value (Staphylococcus aureus [3]; [9]) was 55.6* %. For the same substance, the “Percentage Survivors” value (Staphylococcus aureus [3]; 72 hours, Glu-Trp dose 0.01 μg/kg) was 0%, the “Percentage Survivors” value (Staphylococcus aureus [3]; 72 hours, Glu-Trp dose 0.1 μg/kg) was 0% and the “Percentage Survivors” value (Staphylococcus aureus [3]; 72 hours, Glu-Trp dose 1 μg/kg) was 0† %. For the same substance, the “Percentage Survivors” value (Staphylococcus aureus [3]; [10]) was 16.7* %, the “Percentage Survivors” value (Staphylococcus aureus [3]; [11]) was 33.3* % and the Survival (Staphylococcus aureus [3]; ip, 1 hour after challenge) was “dose-response relationship between the amount of L-Glu-L-Trp administered ip and the survival of animals”. The Clinical outcome ([4]; 200 μg im daily 5-7 days) was “A dramatic change in the clinical picture was observed in all 12 patients”, the ATIII ([4]; After L-Glu-L-Trp Therapy) was 98.3 ± 15.3 % of normal and the “Clotting time (citrated whole blood-recalcified)” value ([4]; After L-Glu-L-Trp Therapy) was 146.5 ± 28.2. The FDP ([4]; After L-Glu-L-Trp Therapy) was 21.7 ± 0.8 µg/mL, the “Fibrinogen Concentration” value ([4]; After L-Glu-L-Trp Therapy) was 4.7 ± 1.2 g/L and the “Fibrinolytic Activity” value ([4]; After L-Glu-L-Trp Therapy) was 181.2 ± 52.2 min. The Kaolin-Cephalin clotting time ([4]; After L-Glu-L-Trp Therapy) was 61.7 ± 6.1, the “Survival by time of single prophylactic ip injection” value (Staphylococcus aureus [5]; 24 hours before challenge) was “more surviving animals than if pretreatment was at 1, 48, or 72 hrs” and the “Percentage Survivors” value (Staphylococcus aureus [5]; 24 hours, Glu-Trp dose 0.01 μg/kg (alone or + Ampicillin)) was 31.5%. For the same substance, the “Percentage Survivors” value (Staphylococcus aureus [5]; 24 hours, Glu-Trp dose 0.1 μg/kg (alone or + Ampicillin)) was 33.3%, the “Percentage Survivors” value (Staphylococcus aureus [5]; 24 hours, Glu-Trp dose 1 μg/kg (alone or + Ampicillin)) was 50.0* % and the “Percentage Survivors” value (Staphylococcus aureus [5]; [6]) was 83.3* %. For the same substance, the “Percentage Survivors” value (Staphylococcus aureus [5]; [7]) was 88.9* %, the “Percentage Survivors” value (Staphylococcus aureus [5]; 24 hours, dose cell empty (line after 100 μg/kg)) was 83.3* % and the “Percentage Survivors” value (Staphylococcus aureus [5]; 48 hours, Glu-Trp dose 0.01 μg/kg (alone or + Ampicillin)) was 3.7%. For the same substance, the “Percentage Survivors” value (Staphylococcus aureus [5]; 48 hours, Glu-Trp dose 0.1 μg/kg (alone or + Ampicillin)) was 0%, the “Percentage Survivors” value (Staphylococcus aureus [5]; 48 hours, Glu-Trp dose 1 μg/kg (alone or + Ampicillin)) was 27.8* % and the “Percentage Survivors” value (Staphylococcus aureus [5]; [8]) was 50.0* %. The “Percentage Survivors” value (Staphylococcus aureus [5]; [9]) was 61.1* %, the “Percentage Survivors” value (Staphylococcus aureus [5]; 48 hours, dose cell empty (line after 100 μg/kg)) was 72.2* % and the “Percentage Survivors” value (Staphylococcus aureus [5]; 72 hours, Glu-Trp dose 0.01 μg/kg (alone or + Ampicillin)) was 0%. For the same substance, the “Percentage Survivors” value (Staphylococcus aureus [5]; 72 hours, Glu-Trp dose 0.1 μg/kg (alone or + Ampicillin)) was 0%, the “Percentage Survivors” value (Staphylococcus aureus [5]; 72 hours, Glu-Trp dose 1 μg/kg (alone or + Ampicillin)) was 5.6% and the “Percentage Survivors” value (Staphylococcus aureus [5]; [10]) was 33.3* %. The “Percentage Survivors” value (Staphylococcus aureus [5]; [11]) was 50.0* %, the “Percentage Survivors” value (Staphylococcus aureus [5]; 72 hours, dose cell empty (line after 100 μg/kg)) was 55.6* % and the Survival (Staphylococcus aureus [5]; ip or im routes) was “increased the percentage of animals surviving challenge with a lethal number of Staphylococcus aureus”. The “Survival, multiple treatment regimen at 72, 48 and 24 hrs” value (Staphylococcus aureus [5]; single agent or combined therapy) was “significantly higher (p<0.05) survival than a single treatment dose”, the “Patients with a positive in vitro response (increased E-RFC)” value (E-RFC) was 55% and the “Patients with decreased MIC of antibiotic for isolated bacteria” value (Staphylococci; conclusion of Stage 1) was 78%. The “Increase in antibiotic sensitivity of isolates” value (Staphylococci; in certain cases) was > 100 fold.
